Laboratory results: Sander's compilation of Henry's law constants (doi:10.1016/s0045-6535(99)00082-x)

Assay: Henry solubility constant Hcp at 298.15 K (mol/(m3 Pa))
Conditions: reference: Altschuh et al. (1999)

In the case of `Clc1ccc(C(c2ccc(Cl)cc2)C(Cl)(Cl)Cl)cc1` [1,1,1-trichloro-2,2-bis-(4-chlorophenyl)-ethane], the “Henry solubility constant Hcp” value is reported as 1.2.

In the case of `Clc1ccc(C(c2ccc(Cl)cc2)C(Cl)Cl)cc1` [1,1-dichloro-2,2-bis-(4-chlorophenyl)-ethane], the “Henry solubility constant Hcp” value is reported as 1.5.

In the case of `ClC(Cl)=C(c1ccc(Cl)cc1)c1ccc(Cl)cc1` [1,1-dichloro-2,2-bis-(4-chlorophenyl)-ethene], the “Henry solubility constant Hcp” value is reported as 0.24.

In the case of `CCC(O)CO` (stereo unspecified) [1,2-butanediol], the “Henry solubility constant Hcp” value is reported as greater than 340.

With `O=[N+]([O-])c1ccc(Cl)c(Cl)c1` [1,2-dichloro-4-nitrobenzene] the “Henry solubility constant Hcp” value was 1.2.

In the case of `OCCCCO` [1,4-butanediol], the “Henry solubility constant Hcp” value is reported as greater than 900.

In the case of `O=[N+]([O-])c1cc(Cl)ccc1Cl` [1,4-dichloro-2-nitrobenzene], the “Henry solubility constant Hcp” value is reported as 0.82.

In the case of `Nc1cccc(Cl)c1` [1-amino-3-chlorobenzene], the “Henry solubility constant Hcp” value is reported as 9.8.

For `CCCCN` [1-butanamine], the “Henry solubility constant Hcp” value was 0.56.

For `CCCCCCCCCCO` [1-decanol], the “Henry solubility constant Hcp” value was 0.31.

In the case of `CCc1cccc2ccccc12` [1-ethylnaphthalene], the “Henry solubility constant Hcp” value is reported as 0.014.

In the case of `CCCCCCCO` [1-heptanol], the “Henry solubility constant Hcp” value is reported as 0.86.

For `CCCCCCO` [1-hexanol], the “Henry solubility constant Hcp” value was 0.98.

With `Cc1ccccc1O` [1-hydroxy-2-methylbenzene] the “Henry solubility constant Hcp” value was 6.3.

In the case of `Cc1cccc(O)c1` [1-hydroxy-3-methylbenzene], the “Henry solubility constant Hcp” value is reported as 12.

For `Cc1ccc(O)cc1` [1-hydroxy-4-methylbenzene], the “Henry solubility constant Hcp” value was greater than 2.9.

For `Cc1cccc2ccccc12` [1-methylnaphthalene], the “Henry solubility constant Hcp” value was 0.019.

For `Nc1cccc2ccccc12` [1-naphthylamine], the “Henry solubility constant Hcp” value was 160.

For `O=[N+]([O-])c1cccc2ccccc12` [1-nitronaphthalene], the “Henry solubility constant Hcp” value was 5.6.

With `CCCCCCCCO` [1-octanol] the “Henry solubility constant Hcp” value was 0.65.

With `CCCO` [1-propanol] the “Henry solubility constant Hcp” value was 2.7.

In the case of `CCCCCCCCCCCCCN` [1-tridecanamine], the “Henry solubility constant Hcp” value is reported as 0.09.

With `OCC#CCO` [2-butyne-1,4-diol] the “Henry solubility constant Hcp” value was greater than 2000.

With `Nc1ccc([N+](=O)[O-])cc1Cl` [2-chloro-4-nitrobenzenamine] the “Henry solubility constant Hcp” value was 1000.

For `CCc1ccc2ccccc2c1` [2-ethylnaphthalene], the “Henry solubility constant Hcp” value was 0.018.

With `CC(C)CO` [2-methyl-1-propanol] the “Henry solubility constant Hcp” value was 1.1.

For `C=CC(C)(C)O` [2-methyl-3-buten-2-ol], the “Henry solubility constant Hcp” value was 0.47.

In the case of `C#CC(C)(C)O` [2-methyl-3-butyn-2-ol], the “Henry solubility constant Hcp” value is reported as 2.5.

In the case of `Cc1ccccc1N` [2-methylbenzenamine], the “Henry solubility constant Hcp” value is reported as 5.

For `Cc1ccc2ccccc2c1` [2-methylnaphthalene], the “Henry solubility constant Hcp” value was 0.016.

With `Nc1ccccc1[N+](=O)[O-]` [2-nitrobenzenamine] the “Henry solubility constant Hcp” value was 170.

For `OCCc1ccccc1` [2-phenylethanol], the “Henry solubility constant Hcp” value was greater than 37.

In the case of `CC(C)O` [2-propanol], the “Henry solubility constant Hcp” value is reported as 0.92.

With `C=CC(C)(O)CCC=C(C)C` (stereo unspecified) [3,7-dimethyl-1,6-octadien-3-ol] the “Henry solubility constant Hcp” value was 0.46.

For `O=[N+]([O-])c1cccc(Cl)c1` [3-chloronitrobenzene], the “Henry solubility constant Hcp” value was 0.73.

For `Cc1cccc(N)c1` [3-methylbenzenamine], the “Henry solubility constant Hcp” value was 5.9.

In the case of `CC1CCCC(O)C1` (stereo unspecified) [3-methylcyclohexanol], the “Henry solubility constant Hcp” value is reported as 2.7.

For `Cc1cccc([N+](=O)[O-])c1` [3-nitrotoluene], the “Henry solubility constant Hcp” value was 1.1.

For `OCCCc1ccccc1` [3-phenyl-1-propanol], the “Henry solubility constant Hcp” value was greater than 180.

For `O=[N+]([O-])c1ccc(Cl)cc1` [4-chloronitrobenzene], the “Henry solubility constant Hcp” value was 2.

In the case of `Nc1ccc([N+](=O)[O-])cc1` [4-nitrobenzenamine], the “Henry solubility constant Hcp” value is reported as 8600.

In the case of `Cc1ccc([N+](=O)[O-])cc1` [4-nitrotoluene], the “Henry solubility constant Hcp” value is reported as 1.8.

For `OCCCCc1ccccc1` [4-phenyl-1-butanol], the “Henry solubility constant Hcp” value was greater than 6.7.

For `CCNc1ccccc1` [(ethylamino)-benzene], the “Henry solubility constant Hcp” value was 1.

In the case of `OCc1ccccc1` [(hydroxymethyl)-benzene], the “Henry solubility constant Hcp” value is reported as greater than 37.

With `CCCCCCCCCCCCN(C)C` [N,N-dimethyl-1-dodecanamine] the “Henry solubility constant Hcp” value was greater than 4.

With `CN(C)C1CCCCC1` [N,N-dimethylcyclohexylamine] the “Henry solubility constant Hcp” value was 0.42.

For `ClC1=C(Cl)[C@]2(Cl)[C@H]3[C@H]([C@@H]4C=C[C@H]3C4)[C@@]1(Cl)C2(Cl)Cl` [aldrin], the “Henry solubility constant Hcp” value was 0.22.

In the case of `Nc1ccccc1` [aminobenzene], the “Henry solubility constant Hcp” value is reported as 5.2.

For `c1ccccc1` [benzene], the “Henry solubility constant Hcp” value was 0.0037.

With `c1ccc2c(c1)cc1ccc3cccc4ccc2c1c34` [benzo[a]pyrene] the “Henry solubility constant Hcp” value was 13.

For `OC1CCCCCCCCCCC1` [cyclododecanol], the “Henry solubility constant Hcp” value was 3.4.

With `NC1CCCCC1` [cyclohexanamine] the “Henry solubility constant Hcp” value was 2.4.

For `CCCCNCCCC` [dibutylamine], the “Henry solubility constant Hcp” value was 1.

For `ClC1=C(Cl)[C@]2(Cl)[C@@H]3[C@@H]4C[C@@H]([C@H]5O[C@@H]45)[C@@H]3[C@@]1(Cl)C2(Cl)Cl` [dieldrin], the “Henry solubility constant Hcp” value was 0.98.

For `ClC1=C(Cl)[C@]2(Cl)[C@@H]3[C@H]4C[C@H]([C@@H]5O[C@H]45)[C@@H]3[C@@]1(Cl)C2(Cl)Cl` [endrin], the “Henry solubility constant Hcp” value was 1.6.

For `CCO` [ethanol], the “Henry solubility constant Hcp” value was 1.3.

For `ClC1=C(Cl)C2(Cl)C3C(Cl)C=CC3C1(Cl)C2(Cl)Cl` (stereo unspecified) [heptachlor], the “Henry solubility constant Hcp” value was 0.034.

In the case of `ClC1=C(Cl)C2(Cl)C3C4OC4C(Cl)C3C1(Cl)C2(Cl)Cl` (stereo unspecified) [heptachlorepoxide], the “Henry solubility constant Hcp” value is reported as 0.47.

With `COc1ccc(C(c2ccc(OC)cc2)C(Cl)(Cl)Cl)cc1` [methoxychlor] the “Henry solubility constant Hcp” value was 49.

With `Cc1ccccc1` [methylbenzene] the “Henry solubility constant Hcp” value was 0.0017.

For `c1ccc2ccccc2c1` [naphthalene], the “Henry solubility constant Hcp” value was 0.018.

In the case of `O=[N+]([O-])c1ccccc1` [nitrobenzene], the “Henry solubility constant Hcp” value is reported as 1.2.

With `ClC1C(Cl)C(Cl)C(Cl)C(Cl)C1Cl` (stereo not drawn) [α-1,2,3,4,5,6-hexachlorocyclohexane] the “Henry solubility constant Hcp” value was 0.81.

For `ClC1C(Cl)C(Cl)C(Cl)C(Cl)C1Cl` (stereo not drawn) [β-1,2,3,4,5,6-hexachlorocyclohexane], the “Henry solubility constant Hcp” value was 22.

For `ClC1C(Cl)C(Cl)C(Cl)C(Cl)C1Cl` (stereo unspecified) [γ-1,2,3,4,5,6-hexachlorocyclohexane], the “Henry solubility constant Hcp” value was 1.9.
